Results on two molecules are retold here after US5834453A, “Methods for the manufacture and use of antimicrobial sterol conjugates” (Lehigh University, priority 1997, dated 1998).

The subject of one series is A. fumigatus (H1120). In words: MIC, micro-broth dilution. The series is classed as cell-based. Particulars: Aspergillus fumigatus, 35° C., 24 hours, read-out: ANTIMICROBIAL ACTIVITY (MIC). The method, boiled down: (§1)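 Broth microdilution in 0.5× trypticase soy broth with an inoculum of 10^6 /ml. Plates incubated for 24 hours at 35° C; endpoint is total absence of growth.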
For orientation: Broth dilution looks for growth in wells or tubes with falling amounts of substance.

The next series relates to A. fumigatus (H29709). In words: MIC, micro-broth dilution. It counts as cell-based. Particulars: Aspergillus fumigatus, 35° C., 24 hours, read-out: ANTIMICROBIAL ACTIVITY (MIC). The method, boiled down: as §1
The subject of the next series is C. albicans (90028). Put plainly: MIC, micro-broth dilution. The series is classed as cell-based. Particulars: Candida albicans, 35° C., 24 hours, read-out: ANTIMICROBIAL ACTIVITY (MIC). The method, boiled down:
as §1

The next series deals with C. neoformans (90012). In words: MIC, micro-broth dilution. It counts as cell-based. Particulars: Cryptococcus neoformans, 24 h, read-out: ANTIMICROBIAL ACTIVITY (MIC). In outline: (§2)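 MIC = complete inhibition of growth; micro-broth dilution, 10^6 /ml inoculum, 0.5× trypticase soy broth, 35° C, 24 h.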
The subject of the next series is C. neoformans (M68979). In words: MIC, micro-broth dilution. It counts as cell-based. Particulars: Cryptococcus neoformans, 24 h, read-out: ANTIMICROBIAL ACTIVITY (MIC). In outline: as §2
The next series has as its system E. cloacae (13047). In words: MIC, micro-broth dilution. It counts as cell-based. Particulars: Enterobacter cloacae, 35° C., 24 hours, read-out: ANTIMICROBIAL ACTIVITY (MIC). In outline:
as §1

The test system of another series is E. coli (25922). In words: MIC, micro-broth dilution. The series is classed as cell-based. Particulars: Escherichia coli, 35° C., 24 hours, read-out: ANTIMICROBIAL ACTIVITY (MIC). In outline: as §1
Another series relates to E. faecalis (29212). Put plainly: MIC, micro-broth dilution. The series is classed as cell-based. Particulars: Enterococcus faecalis, 35° C., 24 hours, read-out: ANTIMICROBIAL ACTIVITY (MIC). In outline:
as §1

The subject of the next series is E. faecium (T6480-9). In words: MIC, micro-broth dilution. It counts as cell-based. Particulars: Enterococcus faecium, 35° C., 24 hours, read-out: ANTIMICROBIAL ACTIVITY (MIC). In outline: as §1
A further series relates to K. pneumoniae (13883). In words: MIC, micro-broth dilution. It counts as cell-based. Particulars: Klebsiella pneumoniae, 24 h, read-out: ANTIMICROBIAL ACTIVITY (MIC). In outline:
as §1

For another series, the system named is P. aeruginosa (10145). In words: MIC, micro-broth dilution. The series is classed as cell-based. Particulars: Pseudomonas aeruginosa, 35° C., 24 hours, read-out: ANTIMICROBIAL ACTIVITY (MIC). The method, boiled down: as §1
Series [1] deals with P. aeruginosa (2853). In words: MIC, micro-broth dilution. It counts as cell-based. Particulars: Pseudomonas aeruginosa, 24 h, read-out: ANTIMICROBIAL ACTIVITY (MIC). The method, boiled down: as §2
The subject of a further series is P. vulgaris (13315). Put plainly: MIC, micro-broth dilution. It counts as cell-based. Particulars: Proteus vulgaris, 35° C., 24 hours, read-out: ANTIMICROBIAL ACTIVITY (MIC). The method, boiled down:
as §1

The next series relates to S. agalactiae (13813). In words: MIC, micro-broth dilution. The series is classed as cell-based. Particulars: Streptococcus agalactiae, 35° C., 24 hours, read-out: ANTIMICROBIAL ACTIVITY (MIC). The method, boiled down:
as §1

The subject of another series is S. aureus (25923). In words: MIC, micro-broth dilution. The series is classed as cell-based. Particulars: Staphylococcus aureus, 35° C., 24 hours, read-out: ANTIMICROBIAL ACTIVITY (MIC). The method, boiled down: as §1
Series [2] has as its system S. aureus (29213). Put plainly: MIC, micro-broth dilution. The series is classed as cell-based. Particulars: Staphylococcus aureus, 24 h, read-out: ANTIMICROBIAL ACTIVITY (MIC). The method, boiled down: as §1
For another series, the system named is S. aureus (H20809). In words: MIC, micro-broth dilution. It counts as cell-based. Particulars: Staphylococcus aureus, 24 h, read-out: ANTIMICROBIAL ACTIVITY (MIC). The method, boiled down: as §1
Another series has as its system S. epidermidis (12228). Put plainly: MIC, micro-broth dilution. The series is classed as cell-based. Particulars: Staphylococcus epidermidis, 35° C., 24 hours, read-out: ANTIMICROBIAL ACTIVITY (MIC). The method, boiled down:
as §1

Series [3] deals with S. marcescens (13880). Put plainly: MIC, micro-broth dilution. The series is classed as cell-based. Particulars: Serratia marcescens, 24 h, read-out: ANTIMICROBIAL ACTIVITY (MIC). The method, boiled down:
as §1

The next series concerns S. pneumoniae (6305). Put plainly: MIC, micro-broth dilution. It counts as cell-based. Particulars: Streptococcus pneumoniae, 35° C., 24 hours, read-out: ANTIMICROBIAL ACTIVITY (MIC). The method, boiled down:
as §1

A further series has as its system S. pyrogenes (19615). Put plainly: MIC, micro-broth dilution. It counts as cell-based. Particulars: 24 h, read-out: ANTIMICROBIAL ACTIVITY (MIC). The method, boiled down: as §2
Series [4] can be described thus: Hemolytic activity, minimal hemolytic concentration (MHC). It counts as cell-based, sheep. Particulars: sheep red blood cells, 24 hours at 37° C. in saline. The protocol:
(§3) Hemolytic activity of the squalamine mimics according to the present invention were also studied by incubating sheep red blood cells for 24 hours at 37° C. in saline (final concentration of 0.5%) with or without respective concentrations of the squalamine mimics. The minimal hemolytic concentration (MHC) was determined as the lowest concentration of a mimic that raised visible hemolysis.

Another series relates to sheep red blood cells. Described as above. The series is classed as cell-based. The protocol:
as §3

The test system of series [5] is various groups of microorganisms. Put plainly: Antimicrobial activity (MIC), all microorganisms tested. It counts as cell-based. The protocol:
(§4) The antimicrobial activity of the compounds according to the present invention were compared with the results obtained for squalamine as reported in Proc. Nat. Acad. Sci. USA 90:1354 (1993), supra, the disclosure of which is incorporated in toto herein. The data reported in the following table is the minimum inhibitory concentration (MIC) required for complete inhibition of microbial growth. The MIC was determined utilizing known micro-broth dilution methods in which inocula of 10^6 /ml of the test organism were incubated in 0.5× trypticase soy broth at 35° C. for 24 hours. MIC's were also tested under various pH conditions, with calcium chloride or magnesium chloride, or with immobilized horse serum.
The numbers in parentheses contained in the table correspond to accession numbers with the American Type Culture Collection (reference strains were either obtained from the American Type Culture Collection or from the Microbiology Laboratory at Memorial Sloan-Kettering Cancer Center; Bacterial strains were maintained on Columbia 5% sheep blood agar plates, and fungi were maintained on Sabouraud Dextrose agar plates).

A further series deals with gram positive cocci. In words: Antimicrobial activity (MIC), gram positive cocci. The series is classed as cell-based. Particulars: of all the mimics tested. The protocol:
as §4

For a further series, the system named is fungi. Put plainly: Antimicrobial activity (MIC), fungi. The series is classed as cell-based. Particulars: of all the mimics tested. The protocol: as §4
Series [6] relates to S. aureus (29213). Particulars: S. aureus ATCC 29213; as reported in the literature; cited from earlier work.
For series [7], the system named is P. aeruginosa (2853). Particulars: P. aeruginosa ATCC 27853; as reported in the literature; cited from earlier work.
Series [8] has as its system S. marcescens (13880). Particulars: known; cited from earlier work.
Series [9] has as its system various groups of microorganisms. Particulars: broad spectrum of microorganisms; cited from earlier work.
For another series, the system named is P. vulgaris. Particulars: P. vulgaris ATCC 13883; as reported in the literature; cited from earlier work.

≈ marks a conversion by molar mass, not a printed value. Entries after “also recorded” stand apart in the source; their conditions may differ.

With `C[C@H](CCC(=O)NCCCNCCCCNCCCN)[C@H]1CC[C@H]2[C@@H]3CC[C@@H]4C[C@H](O)CC[C@]4(C)[C@H]3CC[C@]12C` [SM-25], the MIC (as a rule, the lowest concentration that inhibits growth of the organism) in the series on A. fumigatus (H1120) was 12.5 µg/mL (≈ 22.3 µM); in the series with A. fumigatus (H29709), 12.5 µg/mL (≈ 22.3 µM); in the series with C. albicans (90028) it was 3.13 µg/mL (≈ 5.58 µM); with C. neoformans (90012) it was 0.39 µg/mL (≈ 0.695 µM); in the series on C. neoformans (M68979), 0.39 µg/mL (≈ 0.695 µM); in the series on E. cloacae (13047), above 100 µg/mL. Besides, the MIC with E. coli (25922) is 1.56 µg/mL (≈ 2.78 µM); with E. faecalis (29212), 3.13 µg/mL (≈ 5.58 µM); in the series with E. faecium (T6480-9), 3.13 µg/mL (≈ 5.58 µM); with K. pneumoniae (13883), above 100 µg/mL; in the series on P. aeruginosa (10145), 3.13 µg/mL (≈ 5.58 µM); in the series on P. aeruginosa (2853) [1], 0.78 µg/mL (≈ 1.39 µM). Also, the MIC in the series on P. vulgaris (13315) was 12.5 µg/mL (≈ 22.3 µM); with S. agalactiae (13813), 0.78 µg/mL (≈ 1.39 µM); in the series with S. aureus (25923), 0.78 µg/mL (≈ 1.39 µM); in the series with S. aureus (29213) [2] it was 0.78 µg/mL (≈ 1.39 µM); in the series on S. aureus (H20809), 0.39 µg/mL (≈ 0.695 µM); in the series with S. epidermidis (12228) it was 0.39 µg/mL (≈ 0.695 µM). The MIC is above 100 µg/mL in the series with S. marcescens (13880) [3], 3.13 µg/mL (≈ 5.58 µM) with S. pneumoniae (6305) and 0.78 µg/mL (≈ 1.39 µM) in the series with S. pyrogenes (19615). Also, the minimal hemolytic concentration (MHC) at 24 h in [4] was found to be 50 µg/mL. Further, in the series on sheep red blood cells, the “hemolytic activity (in words)” value is “unwanted hemolytic activity”. In addition, the “antimicrobial activity (in words)” value in series [5] was “highly active; also recorded: more activity than SM-8, SM-14, and SM-22”. The “potency ranking against gram positive cocci” value in the series with gram positive cocci is “most potent activity against gram positive cocci and fungi of all the mimics tested”. In addition, the “potency ranking against fungi” value in the series with fungi was “most potent activity against gram positive cocci and fungi of all the mimics tested”.

With `CC(C)C(CC[C@@H](C)[C@H]1CC[C@H]2[C@@H]3[C@H](O)C[C@H]4C[C@@H](NCCCNCCCCN)CC[C@]4(C)[C@H]3CC[C@]12C)OS(=O)(=O)O` (stereo partly drawn) [squalamine, 3β-N-1-{N-[3-(4-aminobutyl)]-1,3-diaminopropane}-7α,24.zeta.-dihydroxy-5α-cholestane 24-sulfate], the MIC of squalamine in the series on S. aureus (29213) [6] was 1 to 2 µg/mL; in the series on P. aeruginosa (2853) [7], 4 to 8 µg/mL; in the series with P. vulgaris, 4 to 8 µg/mL. In the series on S. marcescens (13880) [8], the “resistance of S. marcescens to squalamine” value was “known to be resistant to squalamine”. Moreover, the “antimicrobial activity of squalamine (in words)” value in [9] is reported as “potent antimicrobial activity against a broad spectrum of microorganisms”.
